This is an account of results in patent US8088930B2, “Benzimidazole derivatives” (Hoffmann-La Roche Inc., priority 2008, dated 2012).

One test addresses T1, FXR ligand binding domain (GST-FXR LBD fusion protein, human FXR aa 193-473) (Homo sapiens, UniProt Q96RI1).
T1 construct: fused on or other part: Glutathione-S-transferase (GST) fused N-terminally to the FXR LBD, used to capture the protein on glutathione SPA beads
T1 sequence (Q96RI1 211-486 limits assumed): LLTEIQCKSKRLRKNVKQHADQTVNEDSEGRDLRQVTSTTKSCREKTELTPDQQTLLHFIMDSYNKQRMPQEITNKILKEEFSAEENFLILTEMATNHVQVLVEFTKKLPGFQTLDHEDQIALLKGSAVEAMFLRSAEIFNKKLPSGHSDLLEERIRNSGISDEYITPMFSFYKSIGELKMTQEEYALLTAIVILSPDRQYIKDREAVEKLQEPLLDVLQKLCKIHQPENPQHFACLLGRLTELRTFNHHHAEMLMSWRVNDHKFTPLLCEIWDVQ
The test is described as follows: Radioligand binding assay (scintillation proximity, radioligand displacement). The following applies: 40 nM GST-FXR LBD on SPA beads, test compound 6×10^−9 M to 2.5×10^−5 M, read-out: h-IC50 Binding. Put shortly: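 40 nM GST-FXR LBD, E. coli-expressed, bound to glutathione yttrium silicate SPA beads in 50 mM Hepes pH 7.4, 10 mM NaCl, 5 mM MgCl2, 0.01% CHAPS. Test compounds displace radioligand (e.g. 20 nM benzimidazolyl-acetamide ligand); bound ligand measured by scintillation proximity counting.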
(In a scintillation proximity assay essentially only radioactivity close to the scintillant gives light.)
Regarding `O=C(O)c1cnc(OCC(C2CCCCC2)n2c(-c3ccc(Cl)cc3)nc3cc(F)c(F)cc32)c(Cl)c1` (stereo not shown) [Example 22, 5-Chloro-6-{2-[2-(4-chloro-phenyl)-5,6-difluoro-benzoimidazol-1-yl]-2-cyclohexyl-ethoxy}-nicotinic acid], the 50% inhibitory concentration (IC50) came out at 30 nM. On to `Cc1cc(OCC(C2CCCCC2)n2c(-c3ccc(Cl)cc3)nc3cc(F)c(F)cc32)ccc1OCC(=O)O` (stereo not shown) [Example 92, (4-{2-[2-(4-Chloro-phenyl)-5,6-difluoro-benzoimidazol-1-yl]-2-cyclohexyl-ethoxy}-2-methyl-phenoxy)-acetic acid], for which the IC50 was 90 nM.

Turning to `Fc1cc2nc(-c3ccc(Cl)cc3)n(C(COc3ccc(-c4nnn[nH]4)cc3F)C3CCCCC3)c2cc1F` (single isomer, unassigned; (+)) [Example 80, (+)-2-(4-Chloro-phenyl)-1-{1-cyclohexyl-2-[2-fluoro-4-(1H-tetrazol-5-yl)-phenoxy]-ethyl}-5,6-difluoro-1H-benzoimidazole], the IC50 was determined as 50 nM.

In the case of `COc1ccc(-c2nc3cc(F)c(F)cc3n2C(CCc2ccc(C(=O)O)cc2)C2CCCCC2)c(OC)n1` (single isomer, unassigned; (+)) [Example 147, (+)-4-{3-Cyclohexyl-3-[2-(2,6-dimethoxy-pyridin-3-yl)-5,6-difluoro-benzoimidazol-1-yl]-propyl}-benzoic acid], the half-maximal inhibitory concentration (IC50) amounted to 0.4 nM. On the same count and under the same terms, the result for `O=C(O)c1ccc(OCC(C2CCCCC2)n2c(-c3ccc(Cl)cc3)nc3cc(F)c(F)cc32)c(F)c1` (single isomer, unassigned; (+)) [Example 9, (+)-4-{2-[2-(4-Chloro-phenyl)-5,6-difluoro-benzoimidazol-1-yl]-2-cyclohexyl-ethoxy}-3-fluoro-benzoic acid] reads 100 nM; that for `O=C(O)c1ccc(COCC(C2CCCCC2)n2c(-c3ccc(Cl)cc3)nc3cc(F)c(F)cc32)cc1` (single isomer, unassigned; (+)) [Example 69, (+)-4-{2-[2-(4-Chloro-phenyl)-5,6-difluoro-benzoimidazol-1-yl]-2-cyclohexyl-ethoxymethyl}-benzoic acid], 700 nM; that for `O=C(O)c1cnc(OCC(C2CCCCC2)n2c(-c3ccc(Cl)cc3)nc3cc(F)c(F)cc32)c(Cl)c1` (single isomer, unassigned; (-)) [Example 24, (−)-5-Chloro-6-{2-[2-(4-chloro-phenyl)-5,6-difluoro-benzoimidazol-1-yl]-2-cyclohexyl-ethoxy}-nicotinic acid], 20 nM. Still for that read-out and setting: the result for `Cc1cc(C(=O)O)cc(C)c1OCC(C1CCCCC1)n1c(-c2ccc(Cl)cc2)nc2ccccc21` (single isomer, unassigned; (+)) [Example 107, (+)-4-{2-[2-(4-Chloro-phenyl)-benzoimidazol-1-yl]-2-cyclohexyl-ethoxy}-3,5-dimethyl-benzoic acid] reads 10 nM; that for `COc1ccc(-c2nc3cc(F)c(F)cc3n2C(COc2ccc(C(=O)O)cn2)C2CCCCC2)c(OC)n1` (stereo not shown) [Example 73, 6-{2-Cyclohexyl-2-[2-(2,6-dimethoxy-pyridin-3-yl)-5,6-difluoro-benzoimidazol-1-yl]-ethoxy}-nicotinic acid], 100 nM. Still for that read-out and setting: the value for `O=C(O)c1ccc(CCC(C2CCCCC2)n2c(-c3ccccc3)nc3cc(F)c(F)cc32)cc1` (stereo not shown) [Example 142, 4-[3-Cyclohexyl-3-(5,6-difluoro-2-phenyl-benzoimidazol-1-yl)-propyl]-benzoic acid] was 5 nM; that for `Fc1cc2nc(-c3ccc(Cl)cc3)n(C(COc3ccncc3)C3CCCCC3)c2cc1F` (stereo not shown) [Example 36, 2-(4-Chloro-phenyl)-1-[1-cyclohexyl-2-(pyridin-4-yloxy)-ethyl]-5,6-difluoro-1H-benzoimidazole] was 90 nM.

As for `O=C(O)c1ccc(OCC(C2CCCCC2)n2c(-c3ccc(Cl)cc3)nc3cc(F)c(F)cc32)cc1` (stereo not shown) [Example 4, 4-{2-[2-(4-Chloro-phenyl)-5,6-difluoro-benzoimidazol-1-yl]-2-cyclohexyl-ethoxy}-benzoic acid], the IC50 was found to be 70 nM.

Take `Cc1cc(C(=O)O)ccc1OCC(C1CCCCC1)n1c(-c2ccc(Cl)cc2)nc2cc(F)c(F)cc21` (single isomer, unassigned; (-)) [Example 12, (−)-4-{2-[2-(4-Chloro-phenyl)-5,6-difluoro-benzoimidazol-1-yl]-2-cyclohexyl-ethoxy}-3-methyl-benzoic acid]: the IC50 turned out to be 50 nM.

Regarding `Cc1cc(C(=O)O)cc(C)c1OCC(C1CCCCC1)n1c(-c2ccc(Cl)cc2)nc2cc(F)c(F)cc21` (stereo not shown) [Example 53, 4-{2-[2-(4-Chloro-phenyl)-5,6-difluoro-benzoimidazol-1-yl]-2-cyclohexyl-ethoxy}-3,5-dimethyl-benzoic acid], the IC50 is 30 nM. As for `O=C(O)c1cccc(OCC(C2CCCCC2)n2c(-c3ccc(Cl)cc3)nc3cc(F)c(F)cc32)c1` (stereo not shown) [Example 15, 3-{2-[2-(4-Chloro-phenyl)-5,6-difluoro-benzoimidazol-1-yl]-2-cyclohexyl-ethoxy}-benzoic acid], the IC50 came out at 70 nM. Still for that read-out and setting: the result for `Fc1cc2nc(-c3ccc(Cl)cc3)n(C(COc3cccnc3)C3CCCCC3)c2cc1F` (stereo not shown) [Example 35, 2-(4-Chloro-phenyl)-1-[1-cyclohexyl-2-(pyridin-3-yloxy)-ethyl]-5,6-difluoro-1H-benzoimidazole] reads 200 nM; that for `O=C(O)c1ccc(OCC(C2CCCCC2)n2c(-c3ccc(Cl)cc3)nc3cc(F)c(F)cc32)cc1` (single isomer, unassigned; (-)) [Example 6, (−)-4-{2-[2-(4-Chloro-phenyl)-5,6-difluoro-benzoimidazol-1-yl]-2-cyclohexyl-ethoxy}-benzoic acid], 90 nM; that for `O=C(O)c1ccc(OCC(C2CCCCC2)n2c(-c3ccc(Cl)cc3)nc3ccccc32)c(F)c1` (stereo not shown) [Example 33, 4-{2-[2-(4-Chloro-phenyl)-benzoimidazol-1-yl]-2-cyclohexyl-ethoxy}-3-fluoro-benzoic acid], 500 nM. On the same count and under the same terms, the result for `Fc1cc2nc(-c3ccc(Cl)cc3)n([C@H](COCC3CCCCC3)C3CCCCC3)c2cc1F` [Example 3, (+)-2-(4-Chloro-phenyl)-1-((S)-1-cyclohexyl-2-cyclohexylmethoxy-ethyl)-5,6-difluoro-1H-benzoimidazole] reads 32100 nM; that for `O=C(O)c1cccc(OCC(C2CCCCC2)n2c(-c3ccc(Cl)cc3)nc3cc(F)c(F)cc32)n1` (stereo not shown) [Example 30, 6-{2-[2-(4-Chloro-phenyl)-5,6-difluoro-benzoimidazol-1-yl]-2-cyclohexyl-ethoxy}-pyridine-2-carboxylic acid], 500 nM. With `Cc1cc(OCC(C2CCCCC2)n2c(-c3ccc(Cl)cc3)nc3cc(F)c(F)cc32)cc(C)c1C(=O)O` (stereo not shown) [Example 61, 4-{2-[2-(4-Chloro-phenyl)-5,6-difluoro-benzoimidazol-1-yl]-2-cyclohexyl-ethoxy}-2,6-dimethyl-benzoic acid], the half-inhibitory concentration (IC50) stood at 1400 nM.

For the compound `O=C(O)c1ccc(COCC(C2CCCCC2)n2c(-c3ccc(Cl)cc3)nc3cc(F)c(F)cc32)cc1` (single isomer, unassigned; (-)) [Example 68, (−)-4-{2-[2-(4-Chloro-phenyl)-5,6-difluoro-benzoimidazol-1-yl]-2-cyclohexyl-ethoxymethyl}-benzoic acid], the concentration for half-maximal inhibition (IC50) turned out to be 60 nM. On the same count and under the same terms, the value for `Fc1cc2nc(-c3ccc(Cl)cc3)n(C(COc3ccc(-c4nnn[nH]4)cc3F)C3CCCCC3)c2cc1F` (stereo not shown) [Example 66, 2-(4-Chloro-phenyl)-1-{1-cyclohexyl-2-[2-fluoro-4-(1H-tetrazol-5-yl)-phenoxy]-ethyl}-5,6-difluoro-1H-benzoimidazole] was 10 nM; that for `O=C(O)c1c(F)cc(OCC(C2CCCCC2)n2c(-c3ccc(Cl)cc3)nc3cc(F)c(F)cc32)cc1F` (stereo not shown) [Example 42, 4-{2-[2-(4-Chloro-phenyl)-5,6-difluoro-benzoimidazol-1-yl]-2-cyclohexyl-ethoxy}-2,6-difluoro-benzoic acid] was 200 nM.

With `Fc1cc2nc(-c3ccc(Cl)cc3)n(C(COc3ccccc3)C3CCCCC3)c2cc1F` (stereo not shown) [Example 38, 2-(4-Chloro-phenyl)-1-(1-cyclohexyl-2-phenoxy-ethyl)-5,6-difluoro-1H-benzoimidazole], the IC50 came to 100 nM.

Turning to `COc1ccc(-c2nc3cc(F)c(F)cc3n2C(COc2c(C)cc(C(=O)O)cc2C)C2CCCCC2)c(OC)n1` (stereo not shown) [Example 82, 4-{2-Cyclohexyl-2-[2-(2,6-dimethoxy-pyridin-3-yl)-5,6-difluoro-benzoimidazol-1-yl]-ethoxy}-3,5-dimethyl-benzoic acid], the IC50 was found to be 1 nM.

The same test, now with this note: h-IC50 Binding, 40 nM GST-FXR LBD on SPA beads, test compound 6×10^−9 M to 2.5×10^−5 M.
With `O=C(O)c1ccc(OCC(C2CCCCC2)n2c(-c3ccc(Cl)cc3)nc3cc(F)c(F)cc32)c(Cl)c1` (stereo not shown) [Example 10, 3-Chloro-4-{2-[2-(4-chloro-phenyl)-5,6-difluoro-benzoimidazol-1-yl]-2-cyclohexyl-ethoxy}-benzoic acid], the IC50 was determined as 30 nM. `O=C(O)c1ccc(OCC(C2CCCCC2)n2c(-c3ccc(Cl)cc3)nc3cc(F)c(F)cc32)c(F)c1` (stereo not shown) [Example 7, 4-{2-[2-(4-Chloro-phenyl)-5,6-difluoro-benzoimidazol-1-yl]-2-cyclohexyl-ethoxy}-3-fluorobenzoic acid] returned an IC50 of 20 nM.

A word on the IC50: it is the midpoint of a concentration-inhibition curve.
